Data as given in patent publication US20260215428A1, “WEED CONTROL METHOD” (SYNGENTA CROP PROTECTION AG, priority 2023, published 2026).

Assays:
Assay type in all cases: in vivo
[1] = test system: Lolium multiflorum; experiment: Glasshouse post-emergence test, visual damage, Table B1-1
Procedure: Seeds of a variety of test species are sown in standard soil in pots. For each treatment, three replicate pots containing 10-15 plants per one-inch pot were sprayed at the 2-3 leaf stage. Clethodim and Compound (Ic) were each applied at 15, 30, 60 and 120 g ai/ha. The test plants are then grown in a glasshouse under controlled conditions in a glasshouse (at 24/16° C., day/night; 14 hours light; 65% humidity) and watered twice daily. […]

[2] = test system: Digitaria sanguinalis; experiment: Glasshouse post-emergence test, visual damage, Table B1-4; details: 14 days after application
Procedure: (§1) Seeds of a variety of test species are sown in standard soil in pots. For each treatment, three replicate pots containing 10-15 plants per one-inch pot were sprayed at the 2-3 leaf stage. Clethodim and Compound (Ic) were each applied at 15, 30, 60 and 120 g ai/ha. The test plants are then grown in a glasshouse under controlled conditions in a glasshouse (at 24/16° C., day/night; 14 hours light; 65% humidity) and watered twice daily. Plants were assessed for visual damage compared to the untreated control 14 days after application (0=0% damage; 100=100% damage).

[3] = test system: Setaria viridis; experiment: Glasshouse post-emergence test, visual damage, Table B1-5; details: 14 days after application
Procedure: as §1

[4] = test system: Digitaria insularis; experiment: Further glasshouse test versus other ACCase-inhibiting herbicides, Table B2-3; details: 21 days after application
Text: (§2) Further tests were employed to test the efficacy of a compound of Formula I versus other ACCase-inhibiting herbicides. The five main targets were Lolium multiflorum, Eleusine indica, Digitaria insularis, Sorghum halepense and Echinochloa crus-galli. Collectively, the populations contained all the major target-site resistance mutations affecting ACCase herbicides. Two L. multiflorum (LM-NTSR-1 and LM-NTSR-2) and one E. crus-galli (ECG-NTSR-1) populations were characterised exclusively by non-target-site resistance (“NTSR”). The target-site resistant L. multiflorum and E. indication populations were 100% homozygous for different ACCase mutations whilst the D. insularis, S. halepense and E. crus-galli samples contained a mixture of homozygous wild and mutant individuals at different genotypic frequencies. Additional underlying NTSR cannot be ruled out in the populations characterised by target-site resistance.
(§3) Around 50 seeds of each of the 24 weed populations were sown in 12-cm pots containing a mixture of peat and compost in a 1:1 ratio. The pots were watered, fertilised and kept in controlled glasshouse conditions set at 24° C./16 hr day, 18° C. night, 65% relative humidity, and a photon flux density of approximately 250 μmol quanta m^−2 s^−1 for Lolium multiflorum. The E. indica, D. insularis, S. halepense and E. crus-galli plants were kept in a separate glasshouse bay characterised by a 17 H photoperiod of 180 μmol m^−2 s^−1 with temperatures of 25° C. day and 19° C. night and 65% relative humidity. When the plants were at the two to four-leaf stage, they were treated with the various ACCase-inhibiting herbicides at 0, 15, 30, 60, 120 and 240 g ai ha^−1 in a spray cabinet mounted with a single mobile Teejet flat fan nozzle (11002VS) calibrated to deliver 200 L ha^−1 at 200 kPa. The L. multiflorum populations were treated by a compound of Formula Ic, clodinafop-propargyl, pinoxaden, cycloxydim and clethodim and the warm season grass weeds E. indica, D. insularis, S. halepense and E. crus-galli were sprayed with a Compound Ic and the commonly employed haloxyfop-methyl and clethodim. Three replicate pots were used per population. Plants were assessed for visual damage compared to the untreated control 21 days after application (0=0% damage; 100=100% damage).

[5] = test system: Sorghum halepense; experiment: Further glasshouse test versus other ACCase-inhibiting herbicides, Table B2-4; details: 21 days after application
Text: as §2, §3

[6] = test system: Echinochloa Crus-galli; experiment: Further glasshouse test versus other ACCase-inhibiting herbicides, Table B2-5; details: 21 days after application
Text: as §2, §3

`CCSC(C)CC1CC(=O)C(/C(CC)=N/OC/C=C/Cl)=C(O)C1` (stereo not drawn) [Clethodim, clethodim] gave a visual damage ([1]; biotype CC2027 (homozygous), 15 g/ha, 14 days after application) of 53%, a visual damage ([1]; biotype CC2027 (homozygous), 30 g/ha, 14 days after application) of 77% and a visual damage ([1]; biotype CC2027 (homozygous), 60 g/ha, 14 days after application) of 100%. For the same compound, the visual damage ([1]; biotype CC2027 (homozygous), 120 g/ha, 14 days after application) was 100%, the visual damage ([1]; biotype GG2078 (homozygous), 15 g/ha, 14 days after application) was 0% and the visual damage ([1]; biotype GG2078 (homozygous), 30 g/ha, 14 days after application) was 20%. It also gave a visual damage ([1]; biotype GG2078 (homozygous), 60 g/ha, 14 days after application) of 20%, a visual damage ([1]; biotype GG2078 (homozygous), 120 g/ha, 14 days after application) of 50% and a visual damage ([1]; biotype LL1781 (homozygous), 15 g/ha, 14 days after application) of 23%. For the same compound, the visual damage ([1]; biotype LL1781 (homozygous), 30 g/ha, 14 days after application) was 37%, the visual damage ([1]; biotype LL1781 (homozygous), 60 g/ha, 14 days after application) was 60% and the visual damage ([1]; biotype LL1781 (homozygous), 120 g/ha, 14 days after application) was 70%. It also gave a visual damage ([1]; biotype NN2041 (homozygous), 15 g/ha, 14 days after application) of 70%, a visual damage ([1]; biotype NN2041 (homozygous), 30 g/ha, 14 days after application) of 100% and a visual damage ([1]; biotype NN2041 (homozygous), 60 g/ha, 14 days after application) of 100%. The visual damage ([1]; biotype NN2041 (homozygous), 120 g/ha, 14 days after application) was 100%, the visual damage ([1]; biotype RR2088 (homozygous), 15 g/ha, 14 days after application) was 0% and the visual damage ([1]; biotype RR2088 (homozygous), 30 g/ha, 14 days after application) was 20%. For the same compound, the visual damage ([1]; biotype RR2088 (homozygous), 60 g/ha, 14 days after application) was 60%, the visual damage ([1]; biotype RR2088 (homozygous), 120 g/ha, 14 days after application) was 60% and the visual damage ([1]; biotype SS1999 (homozygous), 15 g/ha, 21 DAA) was 27%. The visual damage ([1]; biotype SS1999 (homozygous), 30 g/ha, 21 DAA) was 98%, the visual damage ([1]; biotype SS1999 (homozygous), 60 g/ha, 21 DAA) was 100% and the visual damage ([1]; biotype SS1999 (homozygous), 120 g/ha, 21 DAA) was 100%. For the same compound, the visual damage ([1]; biotype Sensitive, 15 g/ha, 14 days after application) was 53%, the visual damage ([1]; biotype Sensitive, 30 g/ha, 14 days after application) was 73% and the visual damage ([1]; biotype Sensitive, 60 g/ha, 14 days after application) was 99%. The visual damage ([1]; biotype Sensitive, 120 g/ha, 14 days after application) was 100%, the visual damage ([2]; biotype I1781L (heterozygous), 15 g/ha) was 20% and the visual damage ([2]; biotype I1781L (heterozygous), 30 g/ha) was 20%. For the same compound, the visual damage ([2]; biotype I1781L (heterozygous), 60 g/ha) was 53%, the visual damage ([2]; biotype I1781L (heterozygous), 120 g/ha) was 67% and the visual damage ([2]; biotype Sensitive, 15 g/ha) was 87%. For the same compound, the visual damage ([2]; biotype Sensitive, 30 g/ha) was 90%, the visual damage ([2]; biotype Sensitive, 60 g/ha) was 100% and the visual damage ([2]; biotype Sensitive, 120 g/ha) was 100%. The visual damage ([3]; biotype GG2078 (homozygous), 15 g/ha) was 30%, the visual damage ([3]; biotype GG2078 (homozygous), 30 g/ha) was 60% and the visual damage ([3]; biotype GG2078 (homozygous), 60 g/ha) was 63%. For the same compound, the visual damage ([3]; biotype GG2078 (homozygous), 120 g/ha) was 67%, the visual damage ([3]; biotype II1781 (homozygous), 15 g/ha) was 80% and the visual damage ([3]; biotype II1781 (homozygous), 30 g/ha) was 100%. The visual damage ([3]; biotype II1781 (homozygous), 60 g/ha) was 100%, the visual damage ([3]; biotype II1781 (homozygous), 120 g/ha) was 100% and the visual damage ([3]; biotype LL1781 (homozygous), 15 g/ha) was 50%. The visual damage ([3]; biotype LL1781 (homozygous), 30 g/ha) was 60%, the visual damage ([3]; biotype LL1781 (homozygous), 60 g/ha) was 60% and the visual damage ([3]; biotype LL1781 (homozygous), 120 g/ha) was 53%. For the same compound, the visual damage ([3]; biotype Sensitive, 15 g/ha) was 90%, the visual damage ([3]; biotype Sensitive, 30 g/ha) was 98% and the visual damage ([3]; biotype Sensitive, 60 g/ha) was 100%. It also gave a visual damage ([3]; biotype Sensitive, 120 g/ha) of 100%, a visual damage ([4]; biotype Sensitive, 15 g/ha) of 100% and a visual damage ([4]; biotype Sensitive, 30 g/ha) of 100%. It also gave a visual damage ([4]; biotype Sensitive, 60 g/ha) of 100%, a visual damage ([4]; biotype Sensitive, 120 g/ha) of 100% and a visual damage ([4]; biotype Sensitive, 240 g/ha) of 100%. The visual damage ([4]; biotype W2027C, 15 g/ha) was 78%, the visual damage ([4]; biotype W2027C, 30 g/ha) was 100% and the visual damage ([4]; biotype W2027C, 60 g/ha) was 100%. For the same compound, the visual damage ([4]; biotype W2027C, 120 g/ha) was 100%, the visual damage ([4]; biotype W2027C, 240 g/ha) was 100% and the visual damage ([5]; biotype Sensitive, 15 g/ha) was 83%. It also gave a visual damage ([5]; biotype Sensitive, 30 g/ha) of 98%, a visual damage ([5]; biotype Sensitive, 60 g/ha) of 100% and a visual damage ([5]; biotype Sensitive, 120 g/ha) of 93%. For the same compound, the visual damage ([5]; biotype Sensitive, 240 g/ha) was 98%, the visual damage ([5]; biotype W2027C, 15 g/ha) was 50% and the visual damage ([5]; biotype W2027C, 30 g/ha) was 92%. For the same compound, the visual damage ([5]; biotype W2027C, 60 g/ha) was 100%, the visual damage ([5]; biotype W2027C, 120 g/ha) was 100% and the visual damage ([5]; biotype W2027C, 240 g/ha) was 100%. For the same compound, the visual damage ([6]; biotype Sensitive, 15 g/ha) was 100%, the visual damage ([6]; biotype Sensitive, 30 g/ha) was 100% and the visual damage ([6]; biotype Sensitive, 60 g/ha) was 100%. It also gave a visual damage ([6]; biotype Sensitive, 120 g/ha) of 100%, a visual damage ([6]; biotype Sensitive, 240 g/ha) of 100% and a visual damage ([6]; biotype W2027C, 15 g/ha) of 83%. It also gave a visual damage ([6]; biotype W2027C, 30 g/ha) of 100%, a visual damage ([6]; biotype W2027C, 60 g/ha) of 100% and a visual damage ([6]; biotype W2027C, 120 g/ha) of 100%. The visual damage ([6]; biotype W2027C, 240 g/ha) was 100%, the visual damage ([6]; population ECG-NTSR-1 (non-target-site resistance), 15 g/ha) was 95% and the visual damage ([6]; population ECG-NTSR-1 (non-target-site resistance), 30 g/ha) was 98%. It also gave a visual damage ([6]; population ECG-NTSR-1 (non-target-site resistance), 60 g/ha) of 100%, a visual damage ([6]; population ECG-NTSR-1 (non-target-site resistance), 120 g/ha) of 100% and a visual damage ([6]; population ECG-NTSR-1 (non-target-site resistance), 240 g/ha) of 100%.
